Source: patent US6849599B2, “Combination drug therapy” (priority 2000, dated 2005)

Columns and labels:
HT29 cells = assay: Tumor growth in nude mice bearing xenografts of human colon tumor cell line HT29; assay type: in vivo; settings: for Treated tumor size/Control tumor size (T/C): p<0.05
Experimental: The antineoplastic activity of TSP plus CPT-11 was evaluated in an art-recognized model for cancer, nude mice bearing xenografts of the human colon tumor cell line HT29.

[1] = Toxicity and mortality in the treated HT29 xenograft nude mice; assay type: in vivo
Experimental: For in vivo studies, nude mice were inoculated subcutaneously in the left axillary region with 5×10^6 HT29 cells. When tumors were palpable (approximately 50 mg), mice were divided into groups (n=15-22) and treated as follows: (i) no treatment; (ii) TSP alone (5-40 mg/kg intraperitoneally) (iii) CPT-11 alone (100-300 mg/kg intraperitoneally); or (iv) TSP (20 mg/kg)+CPT-11 (150 mg/kg). TSP was injected daily while CPT-11 was administered on days 0, 7, 14, and 21. Mice were weighed and tumors measured twice weekly. […] Treated tumor size/Control tumor size (T/C) equaled 0.64 or 0.57, respectively. […] When TSP was combined with CPT-11, a highly significant inhibition of tumor growth was observed compared to control (T/C=0.1, with p=0.00002) and compared to CPT-11 alone (p=0.0008).

CCc1c2c(nc3ccc(OC(=O)N4CCC(N5CCCCC5)CC4)cc13)-c1cc3c(c(=O)n1C2)COC(=O)[C@]3(O)CC [CPT-11, 7-ethyl-10-[4-(1-piperidino)-1-piperidino]-carbonloxycamptothecin]
average T/C (HT29 cells; CPT-11 alone, all doses (100-300 mg/kg intraperitoneally, days 0, 7, 14, 21), day 28, p<0.001): 0.3
Toxicity and mortality ([1]; CPT-11 alone at 250 mg/kg intraperitoneally): induced significant toxicity and mortality
Toxicity and mortality ([1]; CPT-11 alone at 300 mg/kg intraperitoneally): induced significant toxicity and mortality

Thrombospondin-1 [TSP]
Treated tumor size/Control tumor size (T/C) (HT29 cells; TSP alone 10 mg/kg intraperitoneally daily, day 28): 0.64
Treated tumor size/Control tumor size (T/C) (HT29 cells; TSP alone 20 mg/kg intraperitoneally daily, day 28): 0.57
Inhibition of tumor growth, other doses (HT29 cells; TSP alone, other doses of 5-40 mg/kg intraperitoneally daily, compared with 10 or 20 mg/kg): less effective
